Test results: ChEMBL document CHEMBL3885861, “Open TG-GATES”

Species on record: Rattus norvegicus
Test: Open TG-GATES - Regimen: Single
Type: toxicity, organism-based, Sprague-Dawley
Parameters: regimen Single, gender Male, age 6 weeks
Details: in vivo, po, 0 mg/kg, route gavage, dose level Control; for APTT / Bas / Eos / Fbg / Hb / Ht / Lym / MCH / MCHC / MCV / Mono / Neu / PT / Plat / RBC / Ret / WBC: tissue Blood; for KIDNEY_L / KIDNEY_R / KIDNEY_TOTAL: tissue Kidney; for LIVER: tissue Liver; for A/G / ALP / ALT / AST / BUN / CRE / Ca / Cl / DBIL / GLC / IP / K / LDH / Na / PL / RALB / TBIL / TC / TG / TP / gamma-GTP: tissue Plasma

O=C(N[C@H](CO)[C@H](O)c1ccc([N+](=O)[O-])cc1)C(Cl)Cl [CHLORAMPHENICOL]
TERMINAL_BW (3 h): 223.3 g
APTT (3 h): 17.4 s
Bas (3 h): 0%
Eos (3 h): 1%
Fbg (3 h): 266.4 mg/dL
Hb (3 h): 13.2 g/dL
Ht (3 h): 38.7%
Lym (3 h): 79.8%
MCH (3 h): 21.8 pg
MCHC (3 h): 34.2%
MCV (3 h): 63.8 fL
Mono (3 h): 3.8%
Neu (3 h): 15.2%
PT (3 h): 14.3 s
Plat (3 h): 115.3 x10_4/uL
RBC (3 h): 607 x10_4/ul
Ret (3 h): 8.3%
WBC (3 h): 80.9 x10_2/uL
KIDNEY_L (3 h): 0.9 g
KIDNEY_R (3 h): 0.9 g
KIDNEY_TOTAL (3 h): 1.8 g
LIVER (3 h): 10.1 g
A/G (3 h): 0.9
ALP (3 h): 1566 IU/L
ALT (3 h): 41.4 IU/L
AST (3 h): 73.8 IU/L
BUN (3 h): 9.4 mg/dL
CRE (3 h): 0.2 mg/dL
Ca (3 h): 11.6 mg/dL
Cl (3 h): 105 meq/L
DBIL (3 h): 0.012 mg/dL
GLC (3 h): 184.2 mg/dL
IP (3 h): 8.6 mg/dL
K (3 h): 4.2 meq/L
LDH (3 h): 57.6 IU/L
Na (3 h): 139.8 meq/L
PL (3 h): 136.2 mg/dL
RALB (3 h): 2.5 g/dL
TBIL (3 h): 0.062 mg/dL
TC (3 h): 74.6 mg/dL
TG (3 h): 66.4 mg/dL
TP (3 h): 5.3 g/dL
gamma-GTP (3 h): 1.2 IU/L
TERMINAL_BW (6 h): 222.3 g
APTT (6 h): 17.1 s
Bas (6 h): 0%
Eos (6 h): 0.8%
Fbg (6 h): 262.8 mg/dL
Hb (6 h): 13.3 g/dL
Ht (6 h): 42.9%
Lym (6 h): 72.2%
MCH (6 h): 21.6 pg
MCHC (6 h): 30.9%
MCV (6 h): 70.1 fL
Mono (6 h): 2.6%
Neu (6 h): 24.2%
PT (6 h): 14.6 s
Plat (6 h): 109 x10_4/uL
RBC (6 h): 613.2 x10_4/ul
Ret (6 h): 8.2%
WBC (6 h): 60.2 x10_2/uL
KIDNEY_L (6 h): 0.9 g
KIDNEY_R (6 h): 0.9 g
KIDNEY_TOTAL (6 h): 1.8 g
LIVER (6 h): 9.4 g
A/G (6 h): 0.9
ALP (6 h): 1343.8 IU/L
ALT (6 h): 38.8 IU/L
AST (6 h): 71.2 IU/L
BUN (6 h): 8.8 mg/dL
CRE (6 h): 0.2 mg/dL
Ca (6 h): 11.6 mg/dL
Cl (6 h): 105.2 meq/L
DBIL (6 h): 0.014 mg/dL
GLC (6 h): 187.6 mg/dL
IP (6 h): 10.4 mg/dL
K (6 h): 4.2 meq/L
LDH (6 h): 62.8 IU/L
Na (6 h): 141.8 meq/L
PL (6 h): 136.2 mg/dL
RALB (6 h): 2.5 g/dL
TBIL (6 h): 0.064 mg/dL
TC (6 h): 73.6 mg/dL
TG (6 h): 72.2 mg/dL
TP (6 h): 5.5 g/dL
gamma-GTP (6 h): 1.4 IU/L
TERMINAL_BW (9 h): 222.7 g
APTT (9 h): 16.3 s
Bas (9 h): 0%
Eos (9 h): 1%
Fbg (9 h): 256.4 mg/dL
Hb (9 h): 13.5 g/dL
Ht (9 h): 42.9%
Lym (9 h): 71.2%
MCH (9 h): 21.5 pg
MCHC (9 h): 31.5%
MCV (9 h): 68.1 fL
Mono (9 h): 2.6%
Neu (9 h): 25%
PT (9 h): 14.5 s
Plat (9 h): 114.3 x10_4/uL
RBC (9 h): 630.2 x10_4/ul
Ret (9 h): 8.4%
WBC (9 h): 69.8 x10_2/uL
KIDNEY_L (9 h): 0.9 g
KIDNEY_R (9 h): 0.9 g
KIDNEY_TOTAL (9 h): 1.9 g
LIVER (9 h): 8.8 g
A/G (9 h): 0.9
ALP (9 h): 1165.4 IU/L
ALT (9 h): 36 IU/L
AST (9 h): 67.8 IU/L
BUN (9 h): 8.6 mg/dL
CRE (9 h): 0.2 mg/dL
Ca (9 h): 11.2 mg/dL
Cl (9 h): 105.4 meq/L
DBIL (9 h): 0.012 mg/dL
GLC (9 h): 192.6 mg/dL
IP (9 h): 10.4 mg/dL
K (9 h): 4.1 meq/L
LDH (9 h): 74.4 IU/L
Na (9 h): 140.6 meq/L
PL (9 h): 145.8 mg/dL
RALB (9 h): 2.5 g/dL
TBIL (9 h): 0.068 mg/dL
TC (9 h): 81.4 mg/dL
TG (9 h): 49.6 mg/dL
TP (9 h): 5.4 g/dL
gamma-GTP (9 h): 1 IU/L
TERMINAL_BW (24 h): 230.2 g
APTT (24 h): 16.1 s
Bas (24 h): 0%
Eos (24 h): 1%
Fbg (24 h): 264 mg/dL
Hb (24 h): 13 g/dL
Ht (24 h): 40.9%
Lym (24 h): 80.6%
MCH (24 h): 21.3 pg
MCHC (24 h): 31.9%
MCV (24 h): 66.6 fL
Mono (24 h): 2.8%
Neu (24 h): 15.2%
PT (24 h): 14.3 s
Plat (24 h): 120.8 x10_4/uL
RBC (24 h): 614.4 x10_4/ul
Ret (24 h): 7.6%
WBC (24 h): 87.8 x10_2/uL
KIDNEY_L (24 h): 1 g
KIDNEY_R (24 h): 1 g
KIDNEY_TOTAL (24 h): 2 g
LIVER (24 h): 11.2 g
A/G (24 h): 0.9
ALP (24 h): 1650.8 IU/L
ALT (24 h): 48.2 IU/L
AST (24 h): 77 IU/L
BUN (24 h): 15.4 mg/dL
CRE (24 h): 0.2 mg/dL
Ca (24 h): 11.7 mg/dL
Cl (24 h): 103.6 meq/L
DBIL (24 h): 0.012 mg/dL
GLC (24 h): 191.6 mg/dL
IP (24 h): 8.8 mg/dL
K (24 h): 4.1 meq/L
LDH (24 h): 88.8 IU/L
Na (24 h): 141.2 meq/L
PL (24 h): 155.2 mg/dL
RALB (24 h): 2.6 g/dL
TBIL (24 h): 0.056 mg/dL
TC (24 h): 86.8 mg/dL
TG (24 h): 72.6 mg/dL
TP (24 h): 5.6 g/dL
gamma-GTP (24 h): 1.2 IU/L
